Test results taken from PMC10133546, “Simultaneous determination of multiple components in rat plasma by UHPLC-sMRM for pharmacokinetic studies after oral administration of Qingjin Yiqi Granules” (Frontiers in Pharmacology, 2023).
Where two headings read alike, the source gives them in different places. Values belong to the compound of their own block, whether it stands above or below them.

Experiments:
[1] = Pharmacokinetic study in rat plasma after oral administration of QJYQ (UHPLC-sMRM); assay type: in vivo, Sprague-Dawley rats
Experimental: Exion LC AD tandem Blueline 3500 triple quadrupole mass spectrometer (AB SCIEX, Framingham, MA, United States) was used to thirty-three compounds in rat plasma. […] The whole detailed parameters of sMRM were obtained in Supplementary Table S1.
Rat plasma (100 μL) was mixed with 10% formic acid (10 μL) and vortexed for 1 min at room temperature. ISs (10 μL) and methanol/acetonitrile (1/1, v/v) (400 μL) were added and vortexed for 5 min, then centrifuged for 10 min at 14,000 rpm and 4°C. The transported supernatant was condensed to dryness under the flow of nitrogen gas. The dried residue was reconstituted with 70% methanol (100 μL) by vortex-mixing for 5 min and centrifuging at 14,000 rpm for 10 min. Last, 2 μL of the solution were injected into the UHPLC-sMRM system.
The pharmacokinetic study was approved by the Animal Ethics Committee of Tianjin University of Traditional Chinese Medicine (TCM-LAEC2021228). Ten male Sprague-Dawley rats (weight 220–240 g) was kept at the animal center of Tianjin University of Traditional Chinese Medicine (Tianjin, China). […] The sample was transferred right away following a 10 min period of centrifugation at 7000 rpm and 4°C. All plasma samples were frozen and stored at −80°C.
All the pharmacokinetic parameters were calculated using the DAS 1.0 software (Drug and Statistics 1.0, Medical College of Wannan, China). Pharmacokinetic parameters include the maximum drug concentration in plasma (Cmax), the time to achieve maximum drug concentration (Tmax), the area under the plasma concentration-time curve (AUC), elimination half-life (T1/2), and mean residence time (MRT). The pharmacokinetic parameters were computed using the non-compartmental model. All data are expressed as mean ± standard deviation (SD). GraphPad Prism 8.0 (GraphPad Software Inc., La Jolla, CA, United States) software was used to draw the drug-time curve.

[2] = Stability of the working solution (4°C for 1 month); assay type: physicochemical
Experimental: The stability of analytes in plasma was evaluated by analyzing 4 QC samples (n = 6). The stability was included auto-sampler stability (keeping the sample in auto-sampler for 24 h), three times of freeze-thaw cycles stability (freezing cycle at −80°C, thawing cycle at room temperature), room temperature stability (storing samples at room temperature for 24 h), long-term stability (storing samples at −80°C for 1 month). […] Accompanying curve was established when testing the sample, calculate and compare the ratio of the actual measured concentration to the theoretical concentration, expressed in accuracy and RSD.

[3] = Stability of analytes in rat plasma (auto-sampler, freeze-thaw, room temperature, long-term); settings: for Autosampler for 24 h Accuracy (%): autosampler 24 h; for Room temperature for 24 h Accuracy (%): room temperature 24 h; for −80°C for 1month Accuracy (%): −80°C 1 month; for Freeze thaw cycles Accuracy (%): three freeze-thaw cycles
[4] = parameters: method as in Wang et al., 2008; Feng et al., 2017; settings: alkaline and light and heat conditions; ref Wang et al., 2008; Feng et al., 2017; cited from earlier work
Caco-2 cell = test system: Caco-2 cell; parameters: method as in Cai et al., 2016; settings: compared with baicalin; ref Cai et al., 2016; cited from earlier work

SMILES: O=C(O)[C@H]1O[C@@H](Oc2cc3oc(-c4ccccc4)cc(=O)c3c(O)c2O)[C@H](O)[C@@H](O)[C@@H]1O [baicalin]
- Tmax ([1]; male, Sprague-Dawley, rat, plasma, po, 3.15 g/kg, rat plasma, oral QJYQ 3.15 g/kg, n = 8, mean ± SD, read-out: Tmax): 7.22 ± 1.41 h
- MRT ([1]; male, Sprague-Dawley, rat plasma, oral QJYQ 3.15 g/kg, MRT type not specified, read-out: MRT): > 8 h
- half-life ([1]; male, Sprague-Dawley, rat plasma, oral QJYQ 3.15 g/kg, n = 8, mean ± SD): 185 ± 52.2 min
- AUC(0-t) ([1]; male, Sprague-Dawley, rat plasma, oral QJYQ 3.15 g/kg, n = 8, mean ± SD, read-out: AUC(0-t)): 49300 ± 24900 ng·h/mL
- AUC(0-inf) ([1]; male, Sprague-Dawley, rat plasma, oral QJYQ 3.15 g/kg, n = 8, mean ± SD, read-out: AUC(0-∞)): 49700 ± 24900 ng·h/mL
- Cmax ([1]; male, Sprague-Dawley, rat plasma, oral QJYQ 3.15 g/kg, n = 8, mean ± SD, read-out: Cmax): 4520 ± 3140 ng/mL
- MRT inf ([1]; male, Sprague-Dawley, rat plasma, oral QJYQ 3.15 g/kg, n = 8, mean ± SD, read-out: MRT (0-∞)): 8.62 ± 0.53 h
- MRT last ([1]; male, Sprague-Dawley, rat plasma, oral QJYQ 3.15 g/kg, n = 8, mean ± SD, read-out: MRT(0-t)): 8.45 ± 0.58 h
- Working solution Accuracy (%) ([2]; 15.6 ng/mL): 83.1%
- Working solution Accuracy (%) ([2]; 125 ng/mL): 105.0%
- Working solution Accuracy (%) ([2]; 1000 ng/mL): 93.9%
- Working solution Accuracy (%) ([2]; 5000 ng/mL): 87.7%
- Autosampler for 24 h Accuracy (%) ([3]; 15.6 ng/mL): 111.0%
- Room temperature for 24 h Accuracy (%) ([3]; 15.6 ng/mL): 98.5%
- −80°C for 1month Accuracy (%) ([3]; 15.6 ng/mL): 98.9%
- Autosampler for 24 h Accuracy (%) ([3]; 125 ng/mL): 113.0%
- Room temperature for 24 h Accuracy (%) ([3]; 125 ng/mL): 104.0%
- Freeze thaw cycles Accuracy (%) ([3]; 125 ng/mL): 89.3%
- −80°C for 1month Accuracy (%) ([3]; 125 ng/mL): 98.1%
- Autosampler for 24 h Accuracy (%) ([3]; 1000 ng/mL): 94.2%
- Room temperature for 24 h Accuracy (%) ([3]; 1000 ng/mL): 96.8%
- Freeze thaw cycles Accuracy (%) ([3]; 1000 ng/mL): 89.7%
- −80°C for 1month Accuracy (%) ([3]; 1000 ng/mL): 91.4%
- Autosampler for 24 h Accuracy (%) ([3]; 5000 ng/mL): 86.8%
- Room temperature for 24 h Accuracy (%) ([3]; 5000 ng/mL): 89.0%
- Freeze thaw cycles Accuracy (%) ([3]; 5000 ng/mL): 111.0%
- −80°C for 1month Accuracy (%) ([3]; 5000 ng/mL): 90.3%
- stability [4]: not stable

- AUC(0-t) ([1]; rat, in vivo, po, 3.15 g/kg): 73080.32 ± 34091.07 ng·h/mL
- AUC(0-∞) ([1]; rat, in vivo, po, 3.15 g/kg): 73104.07 ± 34093.59 ng·h/mL
- Cmax ([1]; rat, in vivo, po, 3.15 g/kg): 5052.10 ± 3277.54 ng/mL
- MRT ([1]; rat, in vivo, po, 3.15 g/kg): greater than 8 h
- MRT (0-∞) ([1]; rat, in vivo, po, 3.15 g/kg): 8.40 ± 0.83 h
- MRT(0-t) ([1]; rat, in vivo, po, 3.15 g/kg): 8.39 ± 0.83 h
- T1/2 ([1]; rat, in vivo, po, 3.15 g/kg): 2.67 ± 0.24 h
- Tmax ([1]; rat, in vivo, po, 3.15 g/kg): 5.89 ± 3.26 h
- Working solution Accuracy (%) ([2]; 62.5 ng/mL): 91.0%
- Working solution Accuracy (%) ([2]; 500 ng/mL): 113.0%
- Working solution Accuracy (%) ([2]; 1000 ng/mL): 105.0%
- Working solution Accuracy (%) ([2]; 5000 ng/mL): 108.0%
- Autosampler for 24 h Accuracy (%) ([3]; 62.5 ng/mL): 89.7%
- Room temperature for 24 h Accuracy (%) ([3]; 62.5 ng/mL): 83.2%
- Freeze thaw cycles Accuracy (%) ([3]; 62.5 ng/mL): 84.2%
- −80°C for 1month Accuracy (%) ([3]; 62.5 ng/mL): 83.7%
- Autosampler for 24 h Accuracy (%) ([3]; 500 ng/mL): 105.0%
- Room temperature for 24 h Accuracy (%) ([3]; 500 ng/mL): 93.4%
- −80°C for 1month Accuracy (%) ([3]; 500 ng/mL): 113.0%
- Autosampler for 24 h Accuracy (%) ([3]; 1000 ng/mL): 98.7%
- Room temperature for 24 h Accuracy (%) ([3]; 1000 ng/mL): 85.6%
- Freeze thaw cycles Accuracy (%) ([3]; 1000 ng/mL): 95.1%
- −80°C for 1month Accuracy (%) ([3]; 1000 ng/mL): 98.0%
- Autosampler for 24 h Accuracy (%) ([3]; 5000 ng/mL): 97.5%
- Room temperature for 24 h Accuracy (%) ([3]; 5000 ng/mL): 111.0%
- Freeze thaw cycles Accuracy (%) ([3]; 5000 ng/mL): 90.9%
- −80°C for 1month Accuracy (%) ([3]; 5000 ng/mL): 89.1%
SMILES: COc1c(O[C@@H]2O[C@H](C(=O)O)[C@@H](O)[C@H](O)[C@H]2O)cc(O)c2c(=O)cc(-c3ccccc3)oc12 [wogonoside]
- Caco-2 cell membrane permeability (Caco-2 cell): greater than baicalin
- stability [4]: not stable
